Results as given in patent US9616065B2, “Compositions useful in treating brain-related diseases or disorders and methods using same” (priority 2013, dated 2017).
Where two headings read alike, the source gives them in different places.

What was measured:
SmDAT = SmDAT (Schistosoma mansoni, UniProt E9LD23); experiment: Transport inhibition constants, SmDAT; format: cell-based
SERT = molecular target: T1, SERT (Homo sapiens, UniProt P31645); experiment: [3H]-serotonin uptake after preincubation with modulator; format: cell-based
T1 construct: The templates were full-length and nontagged human SERT in pcdna3.1; expressed in transfected cells; host or cells: COS-7, HEK293 or MDCK (uptake); COS-7 (efflux)
Procedure: COS-7, HEK293, and MDCK cells were maintained in Dulbecco modified Eagle medium (3.5 g/l glucose) supplemented with FBS (10% each) at 37° C. with 5% CO2. Uptake experiments were performed 2 days after transfecting DNAs (hSERT, human dopamine transporter [hDAT], chimeras or mutants, or empty vector for background) with TransIT-LT1 (Minis Bio LLC, Madison, Wis., USA) transfection reagent and plating the cells in 24- or 96-well plates.
The uptake was allowed to continue for 10 min at room temperature and was terminated by washing with PBS-CM. […] Vmax and KM are given as mean±S.D. of three independent experiments. […] EC50 values are given as mean±S.E.M. of at least five independent experiments. Statistical significance between vehicle and drug treatments was assessed using Student t-test or one-way analysis of variance (ANOVA) Dunnett's multiple-comparison test (p<0.05).

NET = molecular target: T2, NET (Homo sapiens, UniProt P23975); experiment: NET interaction with amphetamine in presence of modulator; format: cell-based
T2 construct: expressed in transfected cells
Procedure: Mutants are functionally tested in transfected COS-7 cells. Based on the success of the approach that identified the A1 site, the critical residues identified elsewhere herein are tested for changes in uptake kinetics and amphetamine-mediated efflux. Following this initial screen, residues displaying altered activity are tested further in uptake inhibition and ligand displacement assays. For uptake, cells are washed with PBSCM (phosphate-buffered saline with 1 mM MgCl, 0.1 mM CaCl2, 100 μM ascorbic acid, 10 μM clorgyline, 100 μM pargyline, and 10 μM RO 41-0960). To initiate uptake, cells are incubated for 10 min at 25° C. with various concentrations of radiolabeled monoamine. Following uptake, cells are washed and radioactivity is counted using liquid scintillation counting. […] Apparent Km and Vmax are determined using nonlinear regression analysis. The interaction of WT and mutant MAT with psychostimulants and transporter inhibitors is assessed using uptake inhibition assays. Cells are transfected as described elsewhere herein, but before uptake is initiated the cells are preincubated with various concentrations of ligand for 10 min. Uptake is initiated and performed as described elsewhere herein.

SmSERT = SmSERT (Schistosoma mansoni, UniProt Q3I1M7); experiment: Transport inhibition constants, SmSERT; format: cell-based
mSERT mutant YETQ-L563V [1] = experiment: Serotonin uptake kinetics, mSERT mutant YETQ-L563V; format: cell-based, mouse; settings: read-out: apparent affinity (Km)
[2] = molecular target: T3, human SERT amino acid 112 mutant (N112C) (Homo sapiens, UniProt P31645, N112C); experiment: Amphetamine-elicited efflux, human SERT amino acid 112 mutant; format: cell-based; settings: 1 μM amphetamine
T3 construct: The templates were full-length and nontagged human SERT in pcdna3.1; expressed in transfected cells; host or cells: COS-7
Procedure: (§1) COS-7 cells were maintained under the same conditions as above. Efflux experiments were performed 2 days after cell transfection with hSERT or empty vector and plating of the cells in 24-well plates. Cells were washed with room temperature PBS-CM and then loaded with 50 nM [^3H]-serotonin for 1 h. After preloading, cells were washed twice with buffer and then incubated for 10 min with or without substrates at room temperature. After incubation, the supernatant was collected, liquid scintillation fluid added, and the samples counted (Beckman LS-6500 Multi-purpose Scintillation Counter; Beckman Coulter, Brea, Calif.). The cells were solubilized in a solution of 0.1% sodium dodecyl sulfate and 0.1 M NaOH; liquid scintillation fluid was added and tubes were counted as above. All assays were done in quadruplicate.
(§2) The percentage of [^3H]-serotonin efflux among different treatments was calculated by adding counts of supernatant plus cell lysis, with the supernatant counts then divided by the total and multiplied by 100 to yield the percentage of efflux.
(§3) To investigate the role of central domains formed by TMD1 and 6 within SERT, chimeras were produced between the human and parasite SERT and TMD1 and 2 or 6 and 7, respectively, were replaced in the human SERT with their parasite counterparts. […]

wild-type human SERT = wild-type human SERT (Homo sapiens, UniProt P31645); experiment: Amphetamine-elicited efflux, wild-type human SERT; format: cell-based; parameters: The templates were full-length and nontagged human SERT in pcdna3.1; expressed in transfected cells; host or cells: COS-7, HEK293 or MDCK (uptake); COS-7 (efflux); settings: 1 μM amphetamine
Procedure: as §1, §2, §3

mSERT mutant YETQ-L563V [3] = experiment: Substrate-elicited efflux, mSERT mutant YETQ-L563V; format: cell-based, mouse; settings: up to highest testable concentration
Procedure: Efflux is terminated by collecting the supernatant. Both cells and supernatant are counted by liquid scintillation counting. Efflux is calculated as ratio of supernatant over supernatant and cells.

[4] = molecular target: T4, human SERT amino acid 328 mutant (D328C) (Homo sapiens, UniProt P31645, D328C); experiment: Amphetamine-elicited efflux, human SERT amino acid 328 mutant; format: cell-based; settings: 1 μM amphetamine
T4 construct: The templates were full-length and nontagged human SERT in pcdna3.1; expressed in transfected cells; host or cells: COS-7
Procedure: as §1, §2, §3

[5] = substrate: NCCc1c[nH]c2ccc(O)cc12; experiment: cells, lysate or membranes; settings: other: WT mSERT
[6] = read-out: Ki transport inhibition SmDAT

Sequence of SmDAT (E9LD23 1-727): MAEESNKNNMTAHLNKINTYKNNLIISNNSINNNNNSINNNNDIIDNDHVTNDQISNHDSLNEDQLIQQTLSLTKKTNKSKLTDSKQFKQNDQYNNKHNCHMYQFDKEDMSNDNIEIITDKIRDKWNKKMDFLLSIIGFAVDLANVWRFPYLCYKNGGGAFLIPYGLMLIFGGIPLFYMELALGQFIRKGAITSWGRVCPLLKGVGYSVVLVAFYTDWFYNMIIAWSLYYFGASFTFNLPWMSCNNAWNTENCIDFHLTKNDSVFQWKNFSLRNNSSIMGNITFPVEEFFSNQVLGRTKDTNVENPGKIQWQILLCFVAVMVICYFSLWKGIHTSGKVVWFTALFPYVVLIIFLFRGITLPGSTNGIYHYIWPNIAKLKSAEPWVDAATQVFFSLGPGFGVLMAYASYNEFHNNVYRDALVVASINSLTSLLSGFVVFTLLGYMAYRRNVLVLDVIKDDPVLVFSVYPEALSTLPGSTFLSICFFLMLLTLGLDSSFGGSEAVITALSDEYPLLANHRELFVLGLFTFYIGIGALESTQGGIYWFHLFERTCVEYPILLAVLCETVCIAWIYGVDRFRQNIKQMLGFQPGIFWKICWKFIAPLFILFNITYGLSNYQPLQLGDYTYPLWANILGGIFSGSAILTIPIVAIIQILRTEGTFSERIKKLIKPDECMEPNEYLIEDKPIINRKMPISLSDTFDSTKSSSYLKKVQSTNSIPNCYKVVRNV
Sequence of SmSERT (Q3I1M7 entry or part of it): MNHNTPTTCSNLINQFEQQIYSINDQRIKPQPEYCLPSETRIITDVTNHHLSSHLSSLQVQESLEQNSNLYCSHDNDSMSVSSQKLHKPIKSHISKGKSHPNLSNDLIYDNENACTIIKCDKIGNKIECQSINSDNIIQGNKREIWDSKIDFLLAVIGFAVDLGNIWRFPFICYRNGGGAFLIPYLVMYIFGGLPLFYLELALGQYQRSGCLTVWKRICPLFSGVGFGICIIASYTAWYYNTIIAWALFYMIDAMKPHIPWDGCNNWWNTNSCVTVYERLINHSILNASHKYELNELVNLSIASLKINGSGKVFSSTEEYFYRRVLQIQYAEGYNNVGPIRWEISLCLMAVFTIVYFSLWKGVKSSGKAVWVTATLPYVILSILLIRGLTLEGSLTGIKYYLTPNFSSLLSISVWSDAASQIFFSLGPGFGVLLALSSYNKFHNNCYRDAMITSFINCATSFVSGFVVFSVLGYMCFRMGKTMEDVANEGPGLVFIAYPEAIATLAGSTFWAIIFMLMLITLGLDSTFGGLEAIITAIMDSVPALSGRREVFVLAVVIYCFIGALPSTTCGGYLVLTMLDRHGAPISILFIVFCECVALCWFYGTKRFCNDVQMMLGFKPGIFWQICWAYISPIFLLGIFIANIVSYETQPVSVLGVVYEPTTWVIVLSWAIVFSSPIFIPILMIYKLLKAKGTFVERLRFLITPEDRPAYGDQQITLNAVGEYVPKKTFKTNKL
T2 sequence (P23975 whole entry): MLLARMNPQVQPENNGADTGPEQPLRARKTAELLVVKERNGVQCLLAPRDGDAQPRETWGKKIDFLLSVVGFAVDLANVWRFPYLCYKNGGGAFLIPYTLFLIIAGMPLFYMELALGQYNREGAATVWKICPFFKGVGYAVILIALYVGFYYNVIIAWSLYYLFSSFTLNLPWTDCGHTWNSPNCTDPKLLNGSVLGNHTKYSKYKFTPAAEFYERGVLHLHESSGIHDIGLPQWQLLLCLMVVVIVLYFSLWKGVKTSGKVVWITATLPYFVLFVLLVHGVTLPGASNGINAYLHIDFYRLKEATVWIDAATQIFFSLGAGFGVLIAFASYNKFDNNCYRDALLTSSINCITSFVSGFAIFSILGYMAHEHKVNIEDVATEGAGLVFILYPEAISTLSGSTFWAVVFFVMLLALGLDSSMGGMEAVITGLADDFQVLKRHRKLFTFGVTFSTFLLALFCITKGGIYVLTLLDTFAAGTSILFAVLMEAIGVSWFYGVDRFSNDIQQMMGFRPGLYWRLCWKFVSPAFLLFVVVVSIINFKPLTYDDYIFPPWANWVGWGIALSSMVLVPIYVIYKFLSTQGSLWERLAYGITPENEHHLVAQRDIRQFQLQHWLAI

For `CN(C)CCCC1(c2ccc(F)cc2)OCc2cc(C#N)ccc21` (stereo not shown) [Citalopram], the Ki (SmDAT; [6]) was 50.5 ± 4.7 µM.

With `COc1cc(C(C(=O)NCCC(C)C)N(CCCO)C(=O)c2snc(C(N)=O)c2N)ccc1O` (stereo not shown) [ATM2, 4-amino-N^5-{1-(4-hydroxy-3-methoxyphenyl)-2-[(3-methylbutyl)amino]-2-oxoethyl}-N^5-(3-hydroxypropyl)-1,2-thiazole-3,5-dicarboxamide] the “effect on SERT uptake activity / specificity” value (SERT) was “higher activity towards SERT”, the “shape of concentration response on transporter uptake” value (SERT) was “biphasic mode of action, enhancing transporter activity at low concentrations and inhibiting transporter function at higher concentrations” and the “effect on affinity of amphetamine for NET” value (NET) was “affinity for amphetamine was enhanced”.

For `COC(=O)[C@H]1[C@@H](OC(=O)c2ccccc2)C[C@@H]2CC[C@H]1N2C` [Cocaine], the Ki (SmSERT) was 35.4 ± 7.6 µM and the Ki (SmDAT; [6]) was 29.4 ± 3.6 µM.

With `CC(NC(C)(C)C)C(=O)c1cccc(Cl)c1` (stereo not shown) [Bupropion] the Ki (SmDAT; [6]) was 242 ± 36 µM.

Molecule `CN(C)CCCN1c2ccccc2CCc2ccccc21` [Imipramine] has a Ki (SmSERT) of 0.3 ± 0.1 µM.

For `NCCc1c[nH]c2ccc(O)cc12` [serotonin], the Km (mSERT mutant YETQ-L563V [1]) was 4.7 ± 1.3 µM.

With `CC(N)Cc1ccccc1` (stereo not shown) [Amphetamine] the amphetamine-elicited efflux [2] was “no significant amphetamine-elicited efflux”, the Ki (SmSERT) was 393 ± 26 µM and the amphetamine-elicited efflux (wild-type human SERT) was “substantial efflux”. The Ki (SmDAT) was 10 ± 0.5 µM, the “reversal of transport (efflux)” value (mSERT mutant YETQ-L563V [3]) was “did not elicit any significant reversal of transport” and the amphetamine-elicited efflux [4] was “no significant amphetamine-elicited efflux”.

B1: WT mSERT (Mus musculus) (protein)
chain: METTPLNSQKVLSECKDKEDCQENGVLQKGVPTPADKAGPGQISNGYSAVPSTSAGDEAPHSTPAATTTLVAEIHQGERETWGKKMDFLLSVIGYAVDLGNIWRFPYICYQNGGGAFLLPYTIMAIFGGIPLFYMELALGQYHRNGCISIWKKICPIFKGIGYAICIIAFYIASYYNTIIAWALYYLISSFTDQLPWTSCKNSWNTGNCTNYFAQDNITWTLHSTSPAEEFYLRHVLQIHQSKGLQDLGTISWQLALCIMLIFTIIYFSIWKGVKTSGKVVWVTATFPYIVLSVLLVRGATLPGAWRGVVFYLKPNWQKLLETGVWVDAAAQIFFSLGPGFGVLLAFASYNKFNNNCYQDALVTSVVNCMTSFVSGFVIFTVLGYMAEMRNEDVSEVAKDAGPSLLFITYAEAIANMPASTFFAIIFFLMLITLGLDSTFAGLEGVITAVLDEFPHIWAKRREWFVLIVVITCILGSLLTLTSGGAYVVTLLEEYATGPAVLTVALIEAVVVSWFYGITQFCSDVKEMLGFSPGWFWRICWVAISPLFLLFIICSFLMSPPQLRLFQYNYPHWSIILGYCIGTSSVICIPIYIIYRLISTPGTLKERIIKSITPETPTEIPCGDIRMNAV
B1 showed a Km [5] of 3.4 ± 0.7 µM.
